Test results published in patent US5658898A, “Intravenous solutions for a derivative of staurosporine” (CIBA GEIGY Corporation, priority 1994, dated 1997).

Columns and labels:
water solubility = format: physicochemical; conditions: room temperature
[1] = cited from earlier work

For CO[C@@H]1[C@H](N(C)C(=O)c2ccccc2)C[C@H]2O[C@]1(C)n1c3ccccc3c3c4c(c5c6ccccc6n2c5c31)C(=O)NC4 [N-benzoyl-staurosporin], the solubility (water solubility) was less than 0.1 µg/mL.
In the case of CN[C@@H]1C[C@H]2O[C@@](C)([C@@H]1OC)n1c3ccccc3c3c4c(c5c6ccccc6n2c5c31)C(=O)NC4 [staurosporin], the “water-solubility (in words)” value [1] is given as “low water-solubility”.
